Results as given in US20150157739A1, “Imidazo[2,1]thiazol-3-one derivatives” (Hoffmann-La Roche Inc., priority 2012, published 2015).

Experiments:
[1] = target: T1, aggregated recombinant human-microtubule associated protein Tau (Homo sapiens, UniProt P10636); test: Thiazin-red R displacement fluorescence assay on aggregated Tau; assay type: binding; details: displacement of Thiazin-red R from aggregated Tau; compound 0.3 nM to 10000 nM; 30 min room temperature; Ex 531 nm/Em 595 nm
T1 construct: Recombinant human-microtubule associated protein Tau purified from E. coli is aggregated at a concentration of 5 μM with Arachidonic Acid (100 μM) in Tris 10 mM pH8, 24 h at 37° C
Protocol: (§1) Assay for Determination of […] for Tau and A-Beta
(§2) Recombinant human-microtubule associated protein Tau purified from E. coli is aggregated at a concentration of 5 μM with Arachidonic Acid (100 μM) in Tris 10 mM pH8, 24 h at 37° C. Synthetic Aβ40 is aggregated at a concentration of 50 μM with Arachidonic Acid (100 μM) in Tris 10 mM pH8, for three days at 37° C., under shaking at 150 rpm.
(§3) A saturation analysis of Thiazin-red R to the aggregated proteins is done to determine the affinity (Kd) of the Thiazin-red R to the aggregated protein.
(§4) Thiazin-red R will be added at the concentration corresponding to the Kd to the respective aggregated protein binding site, to induce a fluorescent signal that can be inhibited by the addition of a displacer compound.
(§5) In parallel, auto fluorescence of the compound is measured together with the aggregated proteins, but without Thiazin-red R. As negative control, ligand and aggregated protein is used and as positive control, Thiazin-red R, reference compound with known activity and aggregated protein is used.
(§6) Assay is performed in Perkin Elmer OptiPlate 384, black, 45 ul assay volume, assay buffer is DPBS no CaCl2 no MgCl2 (GIBCO N. 14020). Tested compounds are diluted in DMSO and 2 μl is added to the assay ([…]). Assay is started by the addition of the aggregated protein (competitive condition). Plates are shortly shacked (1 min with Sterico variomag teleshake) and incubated for 30 min at room temperature. Measurement are done with En:Vision (Perkin Elmer), at Excitation 531 nm/Emission 595 nm.

[2] = target: T2, aggregated synthetic Aβ40 (Homo sapiens, UniProt P05067); test: Thiazin-red R displacement fluorescence assay on aggregated A-beta; assay type: binding; details: displacement of Thiazin-red R from aggregated Aβ40; compound 0.3 nM to 10000 nM; 30 min room temperature; Ex 531 nm/Em 595 nm
T2 construct: Synthetic Aβ40 is aggregated at a concentration of 50 μM
Protocol: as §1, §2, §3, §4, §5, §6

T1 sequence (P10636 whole entry): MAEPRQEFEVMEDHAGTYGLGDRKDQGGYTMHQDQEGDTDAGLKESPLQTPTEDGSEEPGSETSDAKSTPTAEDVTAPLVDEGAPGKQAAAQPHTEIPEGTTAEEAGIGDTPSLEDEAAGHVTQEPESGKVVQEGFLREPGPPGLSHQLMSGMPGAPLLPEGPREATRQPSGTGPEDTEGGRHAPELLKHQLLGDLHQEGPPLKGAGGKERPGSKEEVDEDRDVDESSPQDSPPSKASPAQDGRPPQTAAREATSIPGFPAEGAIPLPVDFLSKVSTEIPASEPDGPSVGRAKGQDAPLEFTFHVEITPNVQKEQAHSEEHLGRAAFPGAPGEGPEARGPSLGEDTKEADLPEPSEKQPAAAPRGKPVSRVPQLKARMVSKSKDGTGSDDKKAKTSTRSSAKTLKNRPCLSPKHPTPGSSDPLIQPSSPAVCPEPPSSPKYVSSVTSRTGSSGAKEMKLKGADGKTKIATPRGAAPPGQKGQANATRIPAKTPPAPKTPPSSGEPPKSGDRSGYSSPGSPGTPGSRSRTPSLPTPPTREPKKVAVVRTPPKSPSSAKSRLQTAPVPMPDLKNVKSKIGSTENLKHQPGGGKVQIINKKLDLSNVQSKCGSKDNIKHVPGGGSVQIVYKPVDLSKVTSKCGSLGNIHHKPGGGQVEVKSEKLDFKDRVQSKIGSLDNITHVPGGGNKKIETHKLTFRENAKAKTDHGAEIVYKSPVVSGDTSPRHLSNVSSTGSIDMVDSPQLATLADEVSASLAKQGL
T2 sequence (P05067 672-711 limits assumed): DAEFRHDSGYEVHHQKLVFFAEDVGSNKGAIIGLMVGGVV

| Compound | IC50 [1] | IC50 [2] |
| --- | --- | --- |
| C=CCNC(=O)c1cccc(-c2cn3c(=O)/c(=C/c4cc(Cl)c(O)c(OC)c4)sc3n2)c1 [Example 113, N-Allyl-3-{2-[1-(3-chloro-4-hydroxy-5-methoxy-phenyl)-meth-(Z)-ylidene]-3-oxo-2,3-dihydro-imidazo[2,1-b]thiazol-6-yl}-benzamide] | 16 nM | 1160 nM |
| COc1cc(/C=c2\sc3nc(-c4ccc(Cl)cc4)cn3c2=O)cc(OC(C)C)c1O [Example 30, 6-(4-Chloro-phenyl)-2-[1-(4-hydroxy-3-isopropoxy-5-methoxy-phenyl)-meth-(Z)-ylidene]-imidazo[2,1-b]thiazol-3-one] | 6 nM | 16 nM |
| COc1cc(/C=c2\sc3nc(-c4cc(F)ccc4F)cn3c2=O)cc(Cl)c1O [Example 56, 2-[1-(3-Chloro-4-hydroxy-5-methoxy-phenyl)-meth-(Z)-ylidene]-6-(2,5-difluoro-phenyl)-imidazo[2,1-b]thiazol-3-one] | 27 nM |  |
| COc1ccccc1-c1cn2c(=O)/c(=C/c3cc(Cl)c(O)c(OC)c3)sc2n1 [Example 55, 2-[1-(3-Chloro-4-hydroxy-5-methoxy-phenyl)-meth-(Z)-ylidene]-6-(2-methoxy-phenyl)-imidazo[2,1-b]thiazol-3-one] | 103 nM |  |
| COc1cc(/C=c2\sc3nc(-c4ccccc4OCCOCCOCCF)cn3c2=O)cc(Cl)c1O [Example 96, 2-[1-(3-Chloro-4-hydroxy-5-methoxy-phenyl)-meth-(Z)-ylidene]-6-(2-{2-[2-(2-fluoro-ethoxy)-ethoxy]-ethoxy}-phenyl)-imidazo[2,1-b]thiazol-3-one] | 102 nM |  |
| COc1cc(/C=c2\sc3nc(-c4cccc(C(=O)N(C)CCF)c4)cn3c2=O)cc(Cl)c1O [Example 120, 3-{2-[1-(3-Chloro-4-hydroxy-5-methoxy-phenyl)-meth-(Z)-ylidene]-3-oxo-2,3-dihydro-imidazo[2,1-b]thiazol-6-yl}-N-(2-fluoro-ethyl)-N-methyl-benzamide] | 49 nM |  |
| COc1cc(/C=c2\sc3nc(-c4ccccc4OCCF)cn3c2=O)cc(Cl)c1O [Example 83, 2-[1-(3-Chloro-4-hydroxy-5-methoxy-phenyl)-meth-(Z)-ylidene]-6-(2-(2-fluoroethoxyl)phenyl)-imidazo[2,1-b]thiazol-3-one] | 173 nM |  |
| COc1cc(/C=c2\sc3nc(-c4cccc(C#N)c4)cn3c2=O)cc(OC)c1O [Example 50, 3-{2-[1-(4-Hydroxy-3,5-dimethoxy-phenyl)-meth-(Z)-ylidene]-3-oxo-2,3-dihydro-imidazo[2,1-b]thiazol-6-yl}-benzonitrile] | 7 nM |  |

The next lines start with the values.

| IC50 [1] | IC50 [2] | Compound |
| --- | --- | --- |
| 19 nM | 752 nM | COc1cc(/C=c2\sc3nc(-c4cccc(F)c4)cn3c2=O)cc(F)c1O [Example 58, 2-[1-(3-Fluoro-4-hydroxy-5-methoxy-phenyl)-meth-(Z)-ylidene]-6-(3-fluoro-phenyl)-imidazo[2,1-b]thiazol-3-one] |
| 17 nM | 540 nM | COc1cccc(-c2cn3c(=O)/c(=C/c4cc(F)c(O)c(OC)c4)sc3n2)c1 [Example 47, 2-[1-(3-Fluoro-4-hydroxy-5-methoxy-phenyl)-meth-(Z)-ylidene]-6-(3-methoxy-phenyl)-imidazo[2,1-b]thiazol-3-one] |
|  | 13 nM | COc1cc(/C=c2\sc3nc(-c4cccc(C#N)c4)cn3c2=O)cc(F)c1O [Example 73, 3-{2-[1-(3-Fluoro-4-hydroxy-5-methoxy-phenyl)-meth-(Z)-ylidene]-3-oxo-2,3-dihydro-imidazo[2,1-b]thiazol-6-yl}-benzonitrile] |
| 13 nM |  | COc1cc(/C=c2\sc3nc(-c4cccc(OC(F)(F)F)c4)cn3c2=O)cc(F)c1O [Example 35, 2-[1-(3-Fluoro-4-hydroxy-5-methoxy-phenyl)-meth-(Z)-ylidene]-6-(3-trifluoromethoxy-phenyl)-imidazo[2,1-b]thiazol-3-one] |
|  | > 10000 nM | COc1cc(/C=c2\sc3nc(-c4cccc(C#N)c4)cn3c2=O)cc(F)c1O [Example 38, 3-{2-[1-(3-Fluoro-4-hydroxy-5-methoxy-phenyl)-meth-(Z)-ylidene]-3-oxo-2,3-dihydro-imidazo[2,1-b]thiazol-6-yl}-benzonitrile] |
